In patent US20240076742A1, “METHODS FOR IMPROVED CANCER TREATMENT” (CELLPHENOMICS GMBH, priority 2020, published 2024) one finds IC50 data, which are given here for one molecule.

The assay deals with colorectal cancer tumor cells with the SMAD4^R361H mutation. Briefly: Cell viability (CellTiterGlo) of patient-derived colorectal tumor cells in Matrigel, SMAD4 R361H. It counts as cell-based. The conditions noted are these: Homo sapiens, 96 h, SMAD4^R361H loss-of-function mutation, 4-day treatment, FIG. 4, read-out: trametinib concentration at which tumor cell viability decreases below the IC50. As for the experimental part: The mean inhibitory concentration, further referred to as IC50, is the concentration of an inhibitor at which half-maximal inhibition is observed. […] For the experiment, the biological tumor samples were dissociated by incubation with TrypLE Express solution (ThermoFisher Scientific, Germany) and 1.5×10^3 cells per well were seeded in four replicates in Matrigel and overlaid with culture medium. After 3-day incubation at 37° C. in 5% CO2, medium was removed and fresh medium containing trametinib was added. Trametinib was tested in four 1:5 dilution concentrations. Following concentrations were tested: 0.1 μg/ml, 0.02 μg/ml, 0.004 μg/ml and 0.0008 μg/ml. Cells treated with DMSO were used as control while Matrigel only was used for background readout. Staurosporine was used as internal positive control. After 4-day treatment, cell viability was determined by CellTiterGlo® assay. Cell plating, treatment and testing were handled by Biomek FXP Liquid Handler (Beckman Coulter).

≈ marks a conversion by molar mass, not a printed value.

Consider `CC(=O)Nc1cccc(-n2c(=O)n(C3CC3)c(=O)c3c(Nc4ccc(I)cc4F)n(C)c(=O)c(C)c32)c1` [trametinib, N-(3-{3-Cyclopropyl-5-[(2-fluor-4-iodphenyl)amino]-6,8-dimethyl-2,4,7-trioxo-3,4,6,7-tetrahydropyrido[4,3-d]pyrimidin-1(2H)-yl}phenyl)acetamid], for which the IC50 was determined as 6 ng/mL (≈ 9.75 nM).
